From US11331272B2, “Hyperstabilized liposomes increase targeting of mitotic cells” (TEMASEK LIFE SCIENCES LABORATORY LIMITED, priority 2017, dated 2022)

Legend:
[1] = Toxicity / body weight in HCT116 xenografted mice; conditions: NCr Nude, mouse, in vivo, intravenous, tail vein injection, read-out: maximum tolerated dose
Method: (§1) Free BI 2536 (dissolved in 0.1 N HCl, saline) or the indicated liposomal BI 2536 formulations were administered by slow tail vein injection 7 days post grafting with HCT116. Tumor volumes were at least 150 mm^3 and calculated using length×width^2×0.5. All measurements were performed using vernier calipers and mice were weighed every other day. Mice were subcutaneously hydrated with 1 ml Hartmann's solution daily for 5 days post treatment to ensure that the mice were fully hydrated.

HCT116 xenografts = test: Efficacy study in HCT116 xenografted mice (tumor volume, complete responses, survival); assay type: in vivo, NCr Nude mice; conditions: free 100 mg/kg, responders/treated mice
Method: All animal experiments were approved by the Institutional Animal Care and Use Committee of Temasek Life Sciences Laboratory and National University of Singapore (NUS). Female NCr Nude mice (Ages 5-8 weeks) were purchased from (Singapore/InVivos) and subcutaneously xenografted with HCT116 cells. HCT116 cells were grown as described above in 600 cm^2 dishes (Corning) and each dish was used to graft 5 mice when confluence reached ˜80%.
as §1

[2] = Hexanol extraction of BI 2536 from salt solutions; assay type: physicochemical; conditions: pH 3
Method: BI 2536 was first dissolved in ethanol and then coated onto 1.5 ml microfuge tubes by spin drying. BI 2636-coated tubes were then further dried overnight under high vacuum before resuspending in the indicated salt solutions to achieve a final concentration of 500 μM. To ensure complete dissolution of coated BI2536, tubes were briefly vortexed and subjected to bath sonication for 1 minute before being used for characterization.
BI 2536 from 1 ml of the indicated buffer was extracted with 100 μl 1-hexanol (Merck) by brief shaking for 1 hour. Hexanol and buffer layers were separated by brief centrifugation and 20 ul of the hexanol layer was analyzed for fluorescence intensity using the Tecan plate reader (Ex: 330 nm, Em: 370 nm).

CC[C@@H]1C(=O)N(C)c2cnc(Nc3ccc(C(=O)NC4CCN(C)CC4)cc3OC)nc2N1C1CCCC1 [Free Drug, BI 2536]
MTD [1]: 100 mg/kg | Complete Responses, Double Dose (HCT116 xenografts; doses at days 0 and 7, liposomal 340 mg/kg): 0/8 | Complete Responses, Single Dose (HCT116 xenografts; single dose at day 0, liposomal 340 mg/kg): 0/10 | hexanol-extraction efficiency as anion concentration rises ([2]; anions M, C, H): decreased | hexanol-extraction efficiency as anion concentration rises ([2]; anions P, A): increased
